Measured values published in patent US7973024B2, “24-sulfoximine vitamin D3 compounds” (Cyctochroma Inc., priority 2002, dated 2011).

Assays:
[1] = target: T1, CYP24 (Homo sapiens, UniProt Q07973); assay: CYP24 enzyme assay (induced HPK1A-ras cells); assay type: cell-based; conditions: HPK1A-ras cells induced with 1,25(OH)2D3; [3H]-1,25(OH)2D3 substrate, 2 hour
T1 construct: expressed in transfected cells
T1 sequence (Q07973 36-514): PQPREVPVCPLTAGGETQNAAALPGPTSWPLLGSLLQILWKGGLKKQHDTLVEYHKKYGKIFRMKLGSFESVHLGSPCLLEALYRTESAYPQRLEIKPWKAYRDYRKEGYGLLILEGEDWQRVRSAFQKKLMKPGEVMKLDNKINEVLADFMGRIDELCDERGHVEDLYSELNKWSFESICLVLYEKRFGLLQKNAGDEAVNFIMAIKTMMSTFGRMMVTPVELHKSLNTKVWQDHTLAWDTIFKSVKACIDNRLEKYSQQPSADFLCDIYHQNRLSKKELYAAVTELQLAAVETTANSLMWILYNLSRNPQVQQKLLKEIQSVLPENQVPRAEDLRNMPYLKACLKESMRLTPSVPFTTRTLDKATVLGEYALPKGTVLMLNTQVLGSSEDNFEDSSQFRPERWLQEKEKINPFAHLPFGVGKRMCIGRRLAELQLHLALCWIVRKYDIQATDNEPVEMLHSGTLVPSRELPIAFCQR
Protocol: 1.25(OH)2D3 10^−5 M (Sigma, St. Louis, Mo.);
Preparation of 10^−5 M working solution is as follows:
Dissolve 1 mg of 1,25(OH)2D3 into 480 μl of isopropanol to make 5×10^−3 M stock solution. Store at −70° C. until needed. Aliquot 1 μl of 1.25(OH)2D3 5×10^−3 M stock solution to 499 μl of isopropanol to make 1.25(OH)2D3 10^−5 working solution. Store at −20° C. until needed. […] Induction of HPKIA-ras cells (The day before assay) • When the HPK1A-ras cells were 80-90% confluent, added 1 μL 10^−5 M 1.25(OH)2D3 to 1 mL medium in the plate (final concentration is 10^−8 M). • 2. Preparation of cell suspension • After 18 to 20 hours induction, removed the medium and washed the cell twice with PBS. Then tripsinized the cells from plate, centrifuged (2,000 rpm, 5 min) and suspended cells pellet in DMEM medium+1% BSA. • Counted the cells and adjusted cells density to 250,000/150 μL, added 150 μL cell suspension to each well in 48-well plate (including 3 wells as a no cell control, and 3 well cells without drug or inhibitor as controls). • 3. […] Kept the plate in 37° C. for 10 min. • 4. Preparation of substrate • For each ml required, added 972 μl of DMEM+1% BSA medium, 20 μl of 3H-1,25(OH)2D3, and 8 μl of 100 nM DPPD to a tube and vortexed. • 5. Incubation • Added 25 μL substrate to each well, incubated the plate at 37° C. for 2 hour. • Added 25 μL substrate to counting plate (2 well) as a total count. • 6. Lipid Extraction and Counting • Added 500 μL methanol to each well to stop the reaction, transferred them to tube. • Added 250 μL dichloromethane and vortex. • Added 250 μL dichloromethane and […] saturated KCI, and vortex. • Centrifuged at 4000 rpm for 5 min. • Transferred 100 μL of aqueous phase (upper phase) to counting plastic counting plate. Added 600 μL of scintillation fluid to each well. Counted the plate in scintillation counter. • 7. Calculation Enzyme Activity • CPM of cell control after subtraction of CPM of non-cell control (NCC) was as 100% enzyme activity.
• Dilution of test compounds • Stock 10^−3 M

[2] = target: T2, VDR (Homo sapiens, UniProt P11473); assay: VDR binding assay; conditions: B50: displacement of 50 percent [3H]-1,25(OH)2D3 from human recombinant VDR
T2 construct: purchased Biomol
T2 sequence (P11473 1-427): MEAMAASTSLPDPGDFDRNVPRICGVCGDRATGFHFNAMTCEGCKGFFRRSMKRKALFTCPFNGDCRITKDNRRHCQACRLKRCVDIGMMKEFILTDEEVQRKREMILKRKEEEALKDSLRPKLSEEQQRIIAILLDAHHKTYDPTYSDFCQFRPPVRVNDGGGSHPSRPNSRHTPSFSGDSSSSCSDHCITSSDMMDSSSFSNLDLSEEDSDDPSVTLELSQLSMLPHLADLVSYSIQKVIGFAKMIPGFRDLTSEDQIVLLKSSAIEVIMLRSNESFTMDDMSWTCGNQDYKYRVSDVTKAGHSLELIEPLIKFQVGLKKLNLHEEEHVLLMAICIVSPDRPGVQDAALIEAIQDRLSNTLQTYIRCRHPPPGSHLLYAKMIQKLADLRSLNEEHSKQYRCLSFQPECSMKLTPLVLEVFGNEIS
Protocol: 1. VDR 9.4 pmol/μl (human, recombinant, Biomol).
4. TEK300 • Tris-HCI 50 mM • EDTA 1.5 mM • KCI 300 mM Adjust pH to 7.4 (25° C.)
3. Preparation of 1.25(OH)2D3 and test compounds in ethanol
1 μl stock VDR in 2.5 ml TEDK300/Gelatin solution (500 μl/tube), (keep on ice)
• Label tubes according to the following chart, each in triplicate:
• Mixed all tubes via vortex and incubated at room temperature for 1 hour. Added 10 μL of 3H-1,25(OH)2D3 Working Dilution, mixed by vortex and incubated at room temperature for 1 hour 2. Sample processing • Thirty minutes before addition, put Charcoal/Dextran Solution on ice with continuous mixing. Added […] of Charcoal/Dextran Solution to each tube, mixed well and incubated on ice for 30 minutes. Centrifuged @ 2000 rpm for 10 minutes at 4° C. 3. Counting • Pipetted 100 μL of the upper, aqueous phase to a 24 well scintillation counting plate and added 600 μL scintillation fluid per well, covered and mixed well. Counted the plate using a scintillation counter for 5 min/sample. (iv) Calculations: • The amount of 1,25(OH)2D3 to displace 50 percent [^3H]-1,25(OH)2D3 from VDR was calculated as B50 for 1,25(OH)2D3. The VDR binding of other compounds was calculated as B50 relative to a value of 1 for 1,25(OH)2D3.

[3] = target: T1, CYP24; assay: In vitro test of ability to inhibit specifically CYP24 (standard protocol); assay type: cell-based; conditions: ketoconazole as control standard

IC50 [1] | IC50 [2] | selective inhibition of CYP24 [3] | Structure (SMILES)
5 nM | > 2000 nM |  | C=C1/C(=C\C=C2/CCC[C@]3(C)[C@@H]([C@H](C)CCS(=N)(=O)c4ccccc4)CC[C@@H]23)C[C@@H](O)C[C@@H]1O (single isomer, unassigned) [I(a)]
66 nM | > 2000 nM | selectively inhibit | C=C1/C(=C\C=C2/CCC[C@]3(C)[C@@H]([C@H](C)CCS(=O)(=NC)c4ccccc4)CC[C@@H]23)C[C@@H](O)C[C@@H]1O (single isomer, unassigned) [I(e)]
20 nM |  | selectively inhibit | C=C1/C(=C\C=C2/CCC[C@]3(C)[C@@H]([C@H](C)CCS(=O)(=NC)c4ccccc4)CC[C@@H]23)C[C@@H](O)C[C@@H]1O (single isomer, unassigned) [I(g)]
 | > 2000 nM | selectively inhibit | C[C@H](CCS(=N)(=O)c1ccccc1)[C@H]1CC[C@H]2/C(=C/C=C3C[C@@H](O)C[C@H](O)C3)CCC[C@]12C (single isomer, unassigned) [I(i), 24-Phenyl Sulfoximine 19-Nor-Vitamin-D3]
